Measured values from patent US6248586A, “Antisense modulation of PKA catalytic subunit C-alpha expression” (Isis Pharmaceuticals, Inc., priority 1999, dated 2001).

Tested on: human PKA catalytic subunit C-alpha mRNA
Test: Inhibition of PKA catalytic subunit C-alpha mRNA levels in oligonucleotide-treated cells, quantitative real-time PCR
Type: cell-based
Design: concentration or dose not given beside the values
Settings: Table 1, phosphorothioate oligodeoxynucleotides, averages from two experiments
Protocol: when cells reached 80% confluency, they were treated with oligonucleotide. For cells grown in 96-well plates, wells were washed once with 200 μL. OPTI-MEM™-1 reduced-serum medium (Gibco BRL) and then treated with 130 μL of OPTI-MEM™-1 containing 3.75 μg/mL LIPOFECTIN™ (Gibco BRL) and the desired concentration of oligonucleotide. After 4-7 hours of treatment, the medium was replaced with fresh medium. Cells were harvested 16-24 hours after oligonucleotide treatment.
Poly(A)+ mRNA was isolated according to Miura et al., Clin. Chem., 1996, 42, 1758-1764. Other methods for poly(A)+ mRNA isolation are taught in, for example, Ausubel, F. M. et al., Current Protocols in Molecular Biology, Volume 1, pp. 4.5.1-4.5.3, John Wiley & Sons, Inc., 1993. Briefly, for cells grown on 96-well plates, growth medium was removed from the cells and each well was washed with 200 μL cold PBS. 60 μL lysis buffer (10 mM Tris-HCl, pH 7.6, 1 mM EDTA, 0.5 M NaCl, 0.5% NP-40, 20 mM vanadyl-ribonucleoside complex) was added to each well, the plate was gently agitated and then incubated at room temperature for five minutes. 55 μL of lysate was transferred to Oligo d(T) coated 96-well plates (AGCT Inc., Irvine Calif.). Plates were incubated for 60 minutes at room temperature, washed 3 times with 200 μL of wash buffer (10 mM Tris-HCl pH 7.6, 1 mM EDTA, 0.3 M NaCl). After the final wash, the plate was blotted on paper towels to remove excess wash buffer and then air-dried for 5 minutes. 60 μL of elution buffer (5 mM Tris-HCl pH 7.6), preheated to 70° C. was added to each well, the plate was incubated on a 90° C. hot plate for 5 minutes, and the eluate was then transferred to a fresh 96-well plate.
Quantitat:ion of PKA catalytic subunit C-alpha mRNA levels was determined by real-time quantitative PCR using the ABI PRISM™ […] Sequence Detection System (PE-Applied Biosystems, Foster City, Calif.) according to manufacturer's instructions. This is a closed-tube, non-gel-based, fluorescence detection system which allows high-throughput quantitation of polymerase chain reaction (PCR) products in real-time. As opposed to standard PCR, in which amplification products are quantitated after the PCR is completed, products in real-time quantitative PCR are quantitated as they accumulate. This is accomplished by including in the PCR reaction an oligonucleotide probe that anneals specifically between the forward and reverse PCR primers, and contains two fluorescent dyes. A reporter dye (e.g., JOE, FAM, or VIC, obtained from either Operon Technologies Inc., Alameda, Calif. or PE-Applied Biosystems, Foster City, Calif.) is attached to the 5' end of the probe and a quencher dye (e.g., TAMRA, obtained from either Operon Technologies Inc., Alameda, Calif. or PE-Applied Biosystems, Foster City, Calif.) is attached to the 3' end of the probe. When the probe and dyes are intact, reporter dye emission is quenched by the proximity of the 3' quencher dye. During amplification, annealing of the probe to the target sequence creates a substrate that can be cleaved by the 5'-exonuclease activity of Taq polymerase. […] With each cycle, additional reporter dye molecules are cleaved from their respective probes, and the fluorescence intensity is monitored at regular intervals by laser optics built into the ABI PRISM™ 7700 Sequence Detection System. In each assay, a series of parallel reactions containing serial dilutions of mRNA from untreated control samples generates a standard curve that is used to quantitate the percent inhibition after antisense oligonucleotide treatment of test samples.
PCR reagents were obtained from PE-Applied Biosystems, Foster City, Calif. […]

Row | Substance | % Inhibition of PKA catalytic subunit C-alpha mRNA levels
1 | 102522 (antisense CTTCCTCATAGTCGTCAAAG; chemistry not given here) [compound 102522] | 32%
2 | 102518 (antisense AAACCACTTGTGGTTCTTGA; chemistry not given here) [compound 102518] | 34%
3 | 102482 (antisense CCAGCATCACCCGCCCGAAG; chemistry not given here) [compound 102482] | 66%
4 | 102438 (antisense GCGGCGGGTGCTGGCTGCGG; chemistry not given here) [compound 102438] | 15%
5 | 102538 (antisense AAGCAACCCACTGAACATGT; chemistry not given here) [compound 102538] | 38%
6 | 102486 (antisense CTTCTGTTTGTCGAGGATCT; chemistry not given here) [compound 102486] | 51%
7 | 102466 (antisense CGGCGGCGGCGTTGCCCATC; chemistry not given here) [compound 102466] | 79%
8 | 102450 (antisense GCGTTGCCCATCGCGGCGGC; chemistry not given here) [compound 102450] | 64%
9 | 102558 (antisense TGCAGGGATGCCCTCCCCAC; chemistry not given here) [compound 102558] | 65%
10 | 102534 (antisense TTGGCGCTTCGTTCATTTGC; chemistry not given here) [compound 102534] | 39%
11 | 102553 (antisense CGCTGCTGGGAGGAAAGACT; chemistry not given here) [compound 102553] | 52%
12 | 102579 (antisense TGGCTCCCCAGCGGCTCCCC; chemistry not given here) [compound 102579] | 36%
13 | 102474 (antisense ATTCTTTCACGCTCTCCTGC; chemistry not given here) [compound 102474] | 3%
14 | 102470 (antisense GGCGGCGGCGGCGTTGCCCA; chemistry not given here) [compound 102470] | 49%
15 | 102563 (antisense CCTTGAACCCCGGGCCGTGG; chemistry not given here) [compound 102563] | 56%

Same assay, conditions: Table 2, chimeric phosphorothioate 2'-MOE gapmers, averaged from two experiments

Row | Substance | % Inhibition of PKA catalytic subunit C-alpha mRNA levels
16 | 102604 (antisense TCGCGGCGGCGGCGGCCGGG; chemistry not given here) [compound 102604] | 70%
17 | 102696 (antisense AAACCACTTGTGGTTCTTGA; chemistry not given here) [compound 102696] | 71%
18 | 102680 (antisense TAGATGAGATCCAGCGAGTG; chemistry not given here) [compound 102680] | 33%
19 | 102594 (antisense TGGCTGCGGCCGGCGGCCCG; chemistry not given here) [compound 102594] | 55%
20 | 102640 (antisense GCGGCGGCGTTGCCCATCGC; chemistry not given here) [compound 102640] | 87%
21 | 102692 (antisense TCCTTCAAGTCAGAGCTGAA; chemistry not given here) [compound 102692] | 67%
22 | 102738 (antisense CAGGCAGCCCCTCCCCAGCA; chemistry not given here) [compound 102738] | 31%
23 | 102711 (antisense TTGGCGCTTCGTTCATTTGC; chemistry not given here) [compound 102711] | 60%
24 | 102633 (antisense CGGCGTTGCCCATCGCGGCG; chemistry not given here) [compound 102633] | 81%
25 | 102720 (antisense GCTTCTCTTTAAAATGGATT; chemistry not given here) [compound 102720] | 56%
26 | 102672 (antisense GTTGTCCTTGAAGGAGAACT; chemistry not given here) [compound 102672] | 28%
27 | 102747 (antisense CACACAGGTTGAATCGCCCC; chemistry not given here) [compound 102747] | 81%
28 | 102629 (antisense GCGTTGCCCATCGCGGCGGC; chemistry not given here) [compound 102629] | 79%
29 | 102599 (antisense GCGGCGGGTGCTGGCTGCGG; chemistry not given here) [compound 102599] | 77%
30 | 102614 (antisense CCCATCGCGGCGGCGGCGGC; chemistry not given here) [compound 102614] | 77%
31 | 102645 (antisense CGGCGGCGGCGTTGCCCATC; chemistry not given here) [compound 102645] | 84%
32 | 102703 (antisense GGCATGCCCCTAAAACTCAG; chemistry not given here) [compound 102703] | 26%
33 | 102668 (antisense GCTTGCAGGATGCGCTTTTC; chemistry not given here) [compound 102668] | 76%
34 | 102724 (antisense ACCCTCGCAGGATTGGCAGA; chemistry not given here) [compound 102724] | 55%
35 | 102664 (antisense CTTCTGTTTGTCGAGGATCT; chemistry not given here) [compound 102664] | 76%
36 | 102741 (antisense AGCACAAATGAGAAAGTGGG; chemistry not given here) [compound 102741] | 53%
